The results in this text go back to patent publication US20250332300A1 (priority 2024, published 2025).

Common to all, as to format: binding
In experiment [1] the target is T1, mouse HER2 (23-653) (Mus musculus, UniProt P70424). The experiment is described as follows: Surface plasmon resonance (SPR) for assessment of peptide affinity, mouse HER2. Further details: mouse HER2 (23-653) using a Cy5 labeled peptide as a probe; made in house. The note with it: SPR, mouse HER2 extracellular domain, 25° C., 1:1 binding model; read-out: moHER2-SPR-ONC KD. The text has this:
Each protein was immobilized either onto a SA sensorchip (Cytiva, BR-1005-31) or CM5 sensorchip (Cytiva, BR-1005-30) to a density of 800-2000 RU.
(In general: SPR reads the build-up and loss of mass on a sensor chip optically.)

Experiment [2] addresses T2, human HER2 (23-652) (Homo sapiens, UniProt P04626). The experiment is described as follows: TR-FRET competition assay for peptide potency, human HER2. Further details: towards human HER2 (23-652) and mouse HER2 (23-653); made in house; host or cells: mammalian cells. The note with it: read-out: huHER2 TR-FRET IC50.
Experiment [3] concerns the target T1, mouse HER2 (23-653). The experiment is described as follows: TR-FRET competition assay for peptide potency, mouse HER2. Further details: mouse HER2 (23-653) using a Cy5 labeled peptide as a probe; made in house; host or cells: mammalian cells. The following applies: TR-FRET competition with Cy5 labeled peptide probe, 0.1 nM mouse HER2, 24 h incubation; read-out: moHER2 TR-FRET IC50. Background: TR-FRET usually uses a lanthanide donor and a delayed reading to cut background.

For experiment [4], the target named is T2, human HER2 (23-652). The experiment is described as follows: Surface plasmon resonance (SPR) for assessment of peptide affinity, human HER2. The following applies: SPR, human HER2 extracellular domain, 25° C., 1:1 binding model; read-out: huHER2-SPR-ONC KD. Also on record: towards human HER2 (23-652) and mouse HER2 (23-653); made in house. The essentials:
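Binding kinetics fitted from sensorgrams with 280 s peptide association then 3000 s dissociation (30 uL/min), using HER2 (23-652) either directly immobilized (SA/CM5) or anti-Fc-captured; 3 M magnesium chloride used for regeneration.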

Starred links: 1 amine or outer side, 2 acyl side, 3 side chain; linkers in the order of their positions; H or OH if unused. Positions of bridges follow the written chain, without caps; N, C: chain ends. Non-standard residues stand in square brackets, D forms with d. Residues, ends and D or L forms follow the SMILES beside them. Trp(5-OH) = N[C@@H](Cc1c[nH]c2ccc(O)cc12)C(=O)O; NMePhe(4-F) = CN[C@@H](Cc1ccc(F)cc1)C(=O)O; X2 = O=C([C@H](Cc1ccc(O)nc1)N[*:1])[*:2]; NMehPhe = CN[C@@H](CCc1ccccc1)C(=O)O; Glutaryl = O=C(CCCC(=O)[*:2])[*:1]; Aad = N[C@@H](CCCC(=O)O)C(=O)O; Gly(cPr) = N[C@H](C(=O)O)C1CC1; Ahp(2) = CCCCC[C@H](N)C(=O)O; NMeDab = CN[C@@H](CCN)C(=O)O; NMeK = CN[C@@H](CCCCN)C(=O)O; NMeDap = CN[C@@H](CN)C(=O)O; NMeS = CN[C@@H](CO)C(=O)O

With `CC(=O)N[C@H]1CCC(=O)NC[C@@H](C(=O)N(C)[C@@H](Cc2ccc(F)cc2)C(N)=O)N(C)C(=O)[C@H](C2CC2)NC(=O)[C@H](Cc2c[nH]c3ccccc23)NC(=O)[C@H](Cc2c[nH]c3ccc(O)cc23)NC(=O)[C@H](CO)N(C)C(=O)[C@H](CCc2ccccc2)N(C)C(=O)[C@H](CO)NC(=O)[C@H](Cc2ccc(O)nc2)NC1=O` [Example A1, (3S,6S,9S,12S,15S,18S,21S,24S,27S)-9-((1H-indol-3-yl)methyl)-27-acetamido-N—((S)-1-amino-3-(4-fluorophenyl)-1-oxopropan-2-yl)-6-cyclopropyl-12-((5-hydroxy-1H-indol-3-yl)methyl)-15,21-bis(hydroxymethyl)-24-((6-hydroxypyridin-3-yl)methyl)-N,4,16,19-tetramethyl-5,8,11,14,17,20,23,26,30-nonaoxo-18-phenethyl-1,4,7,10,13,16,19,22,25-nonaazacyclotriacontane-3-carboxamide] (Ac-E[X2]S[NMehPhe][NMeS][Trp(5-OH)]W[Gly(cPr)][NMeDap][NMePhe(4-F)]-NH2; lactam 1-9), the Kd (in general, the constant that tells how readily two partners part at equilibrium) at mouse HER2 (23-653) [1] was determined as 98 nM; at human HER2 (23-652) [4] it was 97 nM. The results for the IC50 on human HER2 (23-652) [2] and on mouse HER2 (23-653) [3] were 111 nM and 224 nM, respectively.

Take `CC(=O)NCCCC[C@H]1C(=O)N[C@@H](Cc2c[nH]c3ccc(O)cc23)C(=O)N[C@@H](Cc2c[nH]c3ccccc23)C(=O)N[C@@H](C2CC2)C(=O)N(C)[C@H](C(=O)N(C)[C@@H](Cc2ccc(F)cc2)C(=O)N2CCC[C@H]2C(N)=O)CNC(=O)CCC[C@H](NC(C)=O)C(=O)N[C@@H](Cc2ccc(O)cc2)C(=O)N[C@@H](CO)C(=O)N(C)[C@@H](CCc2ccccc2)C(=O)N1C` [Example A2, (3S,6S,9S,12S,15S,18S,21S,24S,27S)-9-((1H-indol-3-yl)methyl)-27-acetamido-15-(4-acetamidobutyl)-N-((S)-1-((S)-2-carbamoylpyrrolidin-1-yl)-3-(4-fluorophenyl)-1-oxopropan-2-yl)-6-cyclopropyl-12-((5-hydroxy-1H-indol-3-yl)methyl)-24-(4-hydroxybenzyl)-21-(hydroxymethyl)-N,4,16,19-tetramethyl-5,8,11,14,17,20,23,26,31-nonaoxo-18-phenethyl-1,4,7,10,13,16,19,22,25-nonaazacyclohentriacontane-3-carboxamide]: the Kd at mouse HER2 (23-653) [1] is 0.2 nM; on human HER2 (23-652) [4], 0.4 nM. The IC50 at human HER2 (23-652) [2] and at mouse HER2 (23-653) [3] was 0.3 nM each time.

Regarding `CC(=O)NCCCC[C@H]1C(=O)N[C@@H](Cc2c[nH]c3ccc(O)cc23)C(=O)N[C@@H](Cc2c[nH]c3ccccc23)C(=O)N[C@@H](C2CC2)C(=O)N(C)[C@H](C(=O)N(C)[C@@H](Cc2ccc(F)cc2)C(N)=O)CNC(=O)CCC[C@H](NC(C)=O)C(=O)N[C@@H](Cc2ccc(O)cc2)C(=O)N[C@@H](CO)C(=O)N(C)[C@@H](CCc2ccccc2)C(=O)N1C` [Example A5, (3S,6S,9S,12S,15S,18S,21S,24S,27S)-9-((1H-indol-3-yl)methyl)-27-acetamido-15-(4-acetamidobutyl)-N-((S)-1-amino-3-(4-fluorophenyl)-1-oxopropan-2-yl)-6-cyclopropyl-12-((5-hydroxy-1H-indol-3-yl)methyl)-24-(4-hydroxybenzyl)-21-(hydroxymethyl)-N,4,16,19-tetramethyl-5,8,11,14,17,20,23,26,31-nonaoxo-18-phenethyl-1,4,7,10,13,16,19,22,25-nonaazacyclohentriacontane-3-carboxamide] (Ac-[Aad]YS[NMehPhe][NMeK](Ac)[Trp(5-OH)]W[Gly(cPr)][NMeDap][NMePhe(4-F)]-NH2; lactam 1-9), the Kd was 0.6 nM at mouse HER2 (23-653) [1] and 0.5 nM on human HER2 (23-652) [4]. The IC50 (commonly the point on the concentration scale where inhibition reaches its midpoint) on human HER2 (23-652) [2] was determined as 0.4 nM; on mouse HER2 (23-653) [3], 0.8 nM.

As to `CC(=O)NCCCC[C@H]1C(=O)N[C@@H](Cc2c[nH]c3ccc(O)cc23)C(=O)N[C@@H](Cc2c[nH]c3ccccc23)C(=O)N[C@@H](C2CC2)C(=O)N(C)[C@H](C(=O)N(C)[C@@H](Cc2ccc(F)cc2)C(N)=O)CNC(=O)CCCC(=O)N[C@@H](Cc2ccc(O)cc2)C(=O)N[C@@H](CO)C(=O)N(C)[C@@H](CCc2ccccc2)C(=O)N1C` [Example A7, (3S,6S,9S,12S,15S,18S,21S,24S)-9-((1H-indol-3-yl)methyl)-15-(4-acetamidobutyl)-N-((S)-1-amino-3-(4-fluorophenyl)-1-oxopropan-2-yl)-6-cyclopropyl-12-((5-hydroxy-1H-indol-3-yl)methyl)-24-(4-hydroxybenzyl)-21-(hydroxymethyl)-N,4,16,19-tetramethyl-5,8,11,14,17,20,23,26,30-nonaoxo-18-phenethyl-1,4,7,10,13,16,19,22,25-nonaazacyclotriacontane-3-carboxamide] (YS[NMehPhe][NMeK](Ac)[Trp(5-OH)]W[Gly(cPr)][NMeDap][NMePhe(4-F)]-NH2; linker N-8 via Glutaryl), the Kd on mouse HER2 (23-653) [1] was 23 nM; at human HER2 (23-652) [4] it was 18 nM. Also, the values for the IC50 on human HER2 (23-652) [2] and at mouse HER2 (23-653) [3] were 18 nM and 40 nM, respectively.

Consider `CC(=O)N[C@H]1CC(=O)NCC[C@@H](C(=O)N(C)[C@@H](Cc2ccc(F)cc2)C(N)=O)N(C)C(=O)[C@H](C2CC2)NC(=O)[C@H](Cc2c[nH]c3ccccc23)NC(=O)[C@H](Cc2c[nH]c3ccc(O)cc23)NC(=O)[C@H](CO)N(C)C(=O)[C@H](CCc2ccccc2)N(C)C(=O)[C@H](CO)NC(=O)[C@H](Cc2ccc(O)cc2)NC1=O` [Example A9, (2S,5S,8S,11S,14S,17S,20S,23S,29S)-17-((1H-indol-3-yl)methyl)-29-acetamido-N-((S)-1-amino-3-(4-fluorophenyl)-1-oxopropan-2-yl)-20-cyclopropyl-14-((5-hydroxy-1H-indol-3-yl)methyl)-2-(4-hydroxybenzyl)-5,11-bis(hydroxymethyl)-N,7,10,22-tetramethyl-3,6,9,12,15,18,21,27,30-nonaoxo-8-phenethyl-1,4,7,10,13,16,19,22,26-nonaazacyclotriacontane-23-carboxamide] (Ac-DYS[NMehPhe][NMeS][Trp(5-OH)]W[Gly(cPr)][NMeDab][NMePhe(4-F)]-NH2; lactam 1-9), for which the Kd came out at 243 nM at mouse HER2 (23-653) [1] and 117 nM at human HER2 (23-652) [4]. The IC50 stood at 75 nM at human HER2 (23-652) [2] and 172 nM at mouse HER2 (23-653) [3].

For `CC(=O)N[C@H]1CCC(=O)NCC[C@@H](C(=O)N(C)[C@@H](Cc2ccc(F)cc2)C(N)=O)N(C)C(=O)[C@H](C2CC2)NC(=O)[C@H](Cc2c[nH]c3ccccc23)NC(=O)[C@H](Cc2c[nH]c3ccc(O)cc23)NC(=O)[C@H](CO)N(C)C(=O)[C@H](CCc2ccccc2)N(C)C(=O)[C@H](CO)NC(=O)[C@H](Cc2ccc(O)cc2)NC1=O` [Example A10, (2S,5S,8S,11S,14S,17S,20S,23S,30S)-17-((1H-indol-3-yl)methyl)-30-acetamido-N-((S)-1-amino-3-(4-fluorophenyl)-1-oxopropan-2-yl)-20-cyclopropyl-14-((5-hydroxy-1H-indol-3-yl)methyl)-2-(4-hydroxybenzyl)-5,11-bis(hydroxymethyl)-N,7,10,22-tetramethyl-3,6,9,12,15,18,21,27,31-nonaoxo-8-phenethyl-1,4,7,10,13,16,19,22,26-nonaazacyclohentriacontane-23-carboxamide], the Kd on mouse HER2 (23-653) [1] is 520 nM; at human HER2 (23-652) [4] it was 482 nM. Besides, the 50% inhibitory concentration (IC50) was found to be 536 nM on human HER2 (23-652) [2] and 684 nM at mouse HER2 (23-653) [3].

In the case of `CCCCC[C@@H]1NC(=O)[C@H](CCCCNC(C)=O)N(C)C(=O)[C@H](CCc2ccccc2)N(C)C(=O)[C@H](CO)NC(=O)[C@H](Cc2ccc(O)cc2)NC(=O)[C@@H](NC(C)=O)CCCC(=O)NC[C@@H](C(=O)N(C)[C@@H](Cc2ccc(F)cc2)C(N)=O)N(C)C(=O)[C@H](C2CC2)NC(=O)[C@H](Cc2c[nH]c3ccccc23)NC1=O` [Example A11, (3S,6S,9S,12S,15S,18S,21S,24S,27S)-9-((1H-indol-3-yl)methyl)-27-acetamido-15-(4-acetamidobutyl)-N-((S)-1-amino-3-(4-fluorophenyl)-1-oxopropan-2-yl)-6-cyclopropyl-24-(4-hydroxybenzyl)-21-(hydroxymethyl)-N,4,16,19-tetramethyl-5,8,11,14,17,20,23,26,31-nonaoxo-12-pentyl-18-phenethyl-1,4,7,10,13,16,19,22,25-nonaazacyclohentriacontane-3-carboxamide] (Ac-[Aad]YS[NMehPhe][NMeK](Ac)[Ahp(2)]W[Gly(cPr)][NMeDap][NMePhe(4-F)]-NH2; lactam 1-9), the figures for the Kd on mouse HER2 (23-653) [1] and on human HER2 (23-652) [4] were 786 nM and 445 nM, respectively. Further, the figures for the IC50 on human HER2 (23-652) [2] and at mouse HER2 (23-653) [3] were 966 nM and greater than 1000 nM, respectively.
